Laboratory results published in US20120015898A1, “COMPOUNDS AND METHODS FOR TREATMENT OF SICKLE CELL DISEASE OR COMPLICATIONS ASSOCIATED THEREWITH” (GlycoMimetics, Inc., priority 2007, published 2012).

Tests used:
[1] = system: sickle cell mice; assay: TNFα-induced vaso-occlusive crisis in sickle cell mice, intravital microscopy of cremaster venules (prevention protocol); type: in vivo
Source text: FIG. 6 is a schematic of the protocol for inducing a vaso-occlusive crisis (VOC) in sickle cell-affected mice and recording blood flow.
(§1) An animal model of sickle cell disease exists in fully chimeric mice constructed by bone marrow transplantation and expressing >97% human globin containing the β^S mutation. A vaso-occlusive crisis is induced by stimulation with TNFα and is monitored by observing and recording blood flow by intravital microscopy of the venules in the cremaster muscle.
(§2) Each mouse is prepared by cannulating the right carotid artery and by undergoing a tracheotomy to facilitate ventilation under anesthesia. Twenty (20) minutes prior to stimulation with TNFα, the cremaster muscle is gently exteriorized and the venules are set on a microscope stage for observation and recording of blood flow. Just prior to administration of TNFα and again prior to the recording of the venules (90 min later), Compound # 2 is administered through the cannulated carotid artery and data is obtained by monitoring blood flow and recording time of death.

[2] = system: sickle cell mice; assay: Delayed treatment of VOC in sickle cell mice (treatment protocol); type: in vivo; details: control PBS
Procedure: FIG. 9 is a schematic of a sickle cell mouse model for use with both prevention and treatment protocols. The black arrows underneath Comp. #2 are for the prevention protocol. The gray arrow underneath Comp. #2 is for the treatment protocol. Recording is started at the 90 minute mark for the prevention protocol. Recording is started at the 120 minute mark for the treatment protocol.
as §1, §2

## CC1OC(OC2C(NC(=O)c3cc(O)nc(O)n3)CC(C(=O)NCCNC(=O)COCCOCC(=O)Nc3cccc(CNc4cc(S(=O)(=O)O)cc5cc(S(=O)(=O)O)cc(S(=O)(=O)O)c45)c3)CC2OC2OC(CO)C(O)C(O[C@@H](CC3CCCCC3)C(=O)O)C2OC(=O)c2ccccc2)C(O)C(O)C1O (some centres unmarked) [Compound #2]
[1]; after stimulation with TNFα, compound given through cannulated carotid artery just prior to TNFα and again 90 min later, FIG. 7
  blood flow in the sickle cell mouse: restoring blood flow to a velocity observed in normal mice
[1]; sickle cell mice, TNFα-induced vaso-occlusive crisis, FIG. 8
  adhesion of sickle red blood cells (RBC) to leukocytes: significant inhibition of adhesion
[2]; WBCs adherent to vascular endothelium, FIG. 11
  adherent white blood cells (WBCs): significant reduction in the number of WBCs adherent to the vascular endothelium
[2]; FIG. 10
  blood flow rate: normalizes the rate of blood flow
[2]; FIG. 12
  interactions of sickle red blood cells (RBCS) with leukocytes: dramatically reduces interactions of sickle RBCs with leukocytes
